Laboratory results reported in ChEMBL document CHEMBL6182889, “Discovery of the first-in-class DOT1L PROTAC degrader” (Eur J Med Chem, 2025).
The source made the active and inactive calls. The rule behind the calls is not given here.

Experiments:
[1] = biological target: T1, von Hippel-Lindau disease tumor suppressor/Histone-lysine N-methyltransferase, H3 lysine-79 specific (Homo sapiens, UniProt Q8TEK3+P40337); assay: PROTAC activity at VHL/DOT1L in mixed-lineage leukemia rearranged (MLL-r) human MV4-11 cells assessed as induction of DOTIL degradation by measuring fold change in H3K79Me2 level at 3 uM incubated for 48 hrs by western blot analysis relative to control; type: cell-based
T1 sequence (P40337 whole entry, looked up): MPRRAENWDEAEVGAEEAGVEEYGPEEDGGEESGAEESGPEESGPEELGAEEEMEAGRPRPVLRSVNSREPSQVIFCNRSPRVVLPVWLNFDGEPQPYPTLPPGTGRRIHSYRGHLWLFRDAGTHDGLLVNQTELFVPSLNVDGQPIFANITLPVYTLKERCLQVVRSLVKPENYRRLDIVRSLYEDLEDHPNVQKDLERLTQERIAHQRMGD
T1 sequence (Q8TEK3 whole entry, looked up): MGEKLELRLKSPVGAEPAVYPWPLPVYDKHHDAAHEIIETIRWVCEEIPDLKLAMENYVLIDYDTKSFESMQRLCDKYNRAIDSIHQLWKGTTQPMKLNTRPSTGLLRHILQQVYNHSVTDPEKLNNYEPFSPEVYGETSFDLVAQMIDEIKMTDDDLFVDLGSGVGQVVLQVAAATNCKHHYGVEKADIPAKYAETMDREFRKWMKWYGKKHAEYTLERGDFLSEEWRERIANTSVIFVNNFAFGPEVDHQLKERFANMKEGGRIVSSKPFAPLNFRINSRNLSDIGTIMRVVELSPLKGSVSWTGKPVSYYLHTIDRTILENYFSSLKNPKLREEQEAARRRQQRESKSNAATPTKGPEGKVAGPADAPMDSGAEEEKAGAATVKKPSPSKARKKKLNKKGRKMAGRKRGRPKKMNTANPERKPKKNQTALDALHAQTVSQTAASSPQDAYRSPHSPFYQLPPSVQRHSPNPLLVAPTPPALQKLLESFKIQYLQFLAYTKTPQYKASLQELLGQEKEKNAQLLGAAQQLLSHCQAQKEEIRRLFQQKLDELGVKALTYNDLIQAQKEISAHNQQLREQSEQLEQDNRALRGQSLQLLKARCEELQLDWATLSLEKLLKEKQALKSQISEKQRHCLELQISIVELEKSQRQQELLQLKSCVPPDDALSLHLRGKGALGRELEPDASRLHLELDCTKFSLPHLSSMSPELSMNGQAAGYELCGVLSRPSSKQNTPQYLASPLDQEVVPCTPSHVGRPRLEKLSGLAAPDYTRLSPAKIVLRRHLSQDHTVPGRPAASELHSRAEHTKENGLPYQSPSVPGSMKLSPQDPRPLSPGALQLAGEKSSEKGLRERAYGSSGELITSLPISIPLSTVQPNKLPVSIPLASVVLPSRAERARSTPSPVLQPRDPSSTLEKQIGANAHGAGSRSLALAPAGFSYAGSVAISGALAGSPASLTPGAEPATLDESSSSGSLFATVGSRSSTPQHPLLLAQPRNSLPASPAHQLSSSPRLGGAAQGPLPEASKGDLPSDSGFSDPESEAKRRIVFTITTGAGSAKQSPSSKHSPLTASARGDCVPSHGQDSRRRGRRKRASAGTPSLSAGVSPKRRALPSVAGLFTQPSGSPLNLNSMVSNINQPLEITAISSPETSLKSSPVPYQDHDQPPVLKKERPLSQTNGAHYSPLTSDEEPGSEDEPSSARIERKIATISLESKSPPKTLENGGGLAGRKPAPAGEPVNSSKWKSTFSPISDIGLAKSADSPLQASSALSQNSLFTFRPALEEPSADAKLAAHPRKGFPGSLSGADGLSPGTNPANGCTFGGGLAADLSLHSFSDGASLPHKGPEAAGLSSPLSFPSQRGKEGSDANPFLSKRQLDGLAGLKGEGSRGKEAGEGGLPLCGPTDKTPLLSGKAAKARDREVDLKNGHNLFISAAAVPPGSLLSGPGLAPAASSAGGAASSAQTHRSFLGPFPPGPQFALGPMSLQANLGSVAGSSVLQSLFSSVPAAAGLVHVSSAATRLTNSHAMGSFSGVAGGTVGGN

[2] = biological target: Histone-lysine N-methyltransferase 2A (Homo sapiens) (UniProt Q03164); assay: Inhibition of human MLL1 using nucleosomes and SAM as substrate at 10 uM by radiometric Hotspot assay
[3] = biological target: T1, von Hippel-Lindau disease tumor suppressor/Histone-lysine N-methyltransferase, H3 lysine-79 specific; assay: PROTAC activity at VHL/DOT1L in mixed-lineage leukemia rearranged (MLL-r) human MV4-11 cells assessed as induction of DOTIL degradation by measuring fold change in DOT1L protein level at 3 uM incubated for 2 hrs by western blot analysis relative to control; type: cell-based
[4] = biological target: T1, von Hippel-Lindau disease tumor suppressor/Histone-lysine N-methyltransferase, H3 lysine-79 specific; assay: PROTAC activity at VHL/DOT1L in mixed-lineage leukemia rearranged (MLL-r) human THP-1 cells assessed as induction of DOTIL degradation by measuring fold change in H3K79Me2 level at 3 uM incubated for 2 hrs by western blot analysis relative to control; type: cell-based
MOLM-13 [5] = assay: Antiproliferative activity against mixed-lineage leukemia rearranged (MLL-r) human MOLM-13 cells assessed as inhibition of cell growth incubated for 7 days by CCK-8 assay; type: functional, cell-based; conditions: time 7.0 day
[6] = biological target: T1, von Hippel-Lindau disease tumor suppressor/Histone-lysine N-methyltransferase, H3 lysine-79 specific; assay: PROTAC activity against VHL/DOT1L in mixed-lineage leukemia rearranged (MLL-r) human THP-1 cells assessed as induction of DOT1L degradation at 3 uM preincubated with proteasome inhibitor, MG-132 for 1 hr followed by incubation with compound for 4 hrs by western blot analysis; type: cell-based
[7] = biological target: T1, von Hippel-Lindau disease tumor suppressor/Histone-lysine N-methyltransferase, H3 lysine-79 specific; assay: PROTAC activity at VHL/DOT1L in mixed-lineage leukemia rearranged (MLL-r) human THP-1 cells assessed as induction of DOTIL degradation by measuring fold change in DOT1L protein level at 3 uM incubated for 2 hrs by western blot analysis relative to control; type: cell-based
MOLM-13 [8] = assay: Effect on DOT1L mRNA expression in mixed-lineage leukemia rearranged (MLL-r) human MOLM-13 cells at 3 uM incubated for 24 hrs by RT-qPCR analysis; type: functional, cell-based
[9] = biological target: T1, von Hippel-Lindau disease tumor suppressor/Histone-lysine N-methyltransferase, H3 lysine-79 specific; assay: PROTAC activity at VHL/DOTIL in mixed-lineage leukemia rearranged (MLL-r) human THP-1 cells assessed as induction of DOT1L degradation by measuring fold change in DOTIL protein level at 0.3 uM incubated for 24 hrs by western blot analysis relative to control; type: cell-based
[10] = biological target: T1, von Hippel-Lindau disease tumor suppressor/Histone-lysine N-methyltransferase, H3 lysine-79 specific; assay: PROTAC activity at VHL/DOT1L in mixed-lineage leukemia rearranged (MLL-r) human MV4-11 cells assessed as induction of DOTIL degradation by measuring fold change in DOT1L protein level at 3 uM incubated for 24 hrs by western blot analysis relative to control; type: cell-based
[11] = biological target: T1, von Hippel-Lindau disease tumor suppressor/Histone-lysine N-methyltransferase, H3 lysine-79 specific; assay: PROTAC activity at VHL/DOT1L in mixed-lineage leukemia rearranged (MLL-r) human MV4-11 cells assessed as induction of DOTIL degradation by measuring fold change in DOT1L protein level at 3 uM incubated for 8 hrs by western blot analysis relative to control; type: cell-based
[12] = biological target: T1, von Hippel-Lindau disease tumor suppressor/Histone-lysine N-methyltransferase, H3 lysine-79 specific; assay: PROTAC activity at VHL/DOT1L in mixed-lineage leukemia rearranged (MLL-r) human THP-1 cells assessed as induction of DOTIL degradation by measuring fold change in H3K79Me2 level at 3 uM incubated for 1 hr by western blot analysis relative to control; type: cell-based
[13] = biological target: T2, Histone-lysine N-methyltransferase EHMT1 (Homo sapiens) (UniProt Q9H9B1); assay: Inhibition of human GLP using Histone H3 and SAM as substrate at 10 uM by radiometric Hotspot assay
T2 sequence (whole entry): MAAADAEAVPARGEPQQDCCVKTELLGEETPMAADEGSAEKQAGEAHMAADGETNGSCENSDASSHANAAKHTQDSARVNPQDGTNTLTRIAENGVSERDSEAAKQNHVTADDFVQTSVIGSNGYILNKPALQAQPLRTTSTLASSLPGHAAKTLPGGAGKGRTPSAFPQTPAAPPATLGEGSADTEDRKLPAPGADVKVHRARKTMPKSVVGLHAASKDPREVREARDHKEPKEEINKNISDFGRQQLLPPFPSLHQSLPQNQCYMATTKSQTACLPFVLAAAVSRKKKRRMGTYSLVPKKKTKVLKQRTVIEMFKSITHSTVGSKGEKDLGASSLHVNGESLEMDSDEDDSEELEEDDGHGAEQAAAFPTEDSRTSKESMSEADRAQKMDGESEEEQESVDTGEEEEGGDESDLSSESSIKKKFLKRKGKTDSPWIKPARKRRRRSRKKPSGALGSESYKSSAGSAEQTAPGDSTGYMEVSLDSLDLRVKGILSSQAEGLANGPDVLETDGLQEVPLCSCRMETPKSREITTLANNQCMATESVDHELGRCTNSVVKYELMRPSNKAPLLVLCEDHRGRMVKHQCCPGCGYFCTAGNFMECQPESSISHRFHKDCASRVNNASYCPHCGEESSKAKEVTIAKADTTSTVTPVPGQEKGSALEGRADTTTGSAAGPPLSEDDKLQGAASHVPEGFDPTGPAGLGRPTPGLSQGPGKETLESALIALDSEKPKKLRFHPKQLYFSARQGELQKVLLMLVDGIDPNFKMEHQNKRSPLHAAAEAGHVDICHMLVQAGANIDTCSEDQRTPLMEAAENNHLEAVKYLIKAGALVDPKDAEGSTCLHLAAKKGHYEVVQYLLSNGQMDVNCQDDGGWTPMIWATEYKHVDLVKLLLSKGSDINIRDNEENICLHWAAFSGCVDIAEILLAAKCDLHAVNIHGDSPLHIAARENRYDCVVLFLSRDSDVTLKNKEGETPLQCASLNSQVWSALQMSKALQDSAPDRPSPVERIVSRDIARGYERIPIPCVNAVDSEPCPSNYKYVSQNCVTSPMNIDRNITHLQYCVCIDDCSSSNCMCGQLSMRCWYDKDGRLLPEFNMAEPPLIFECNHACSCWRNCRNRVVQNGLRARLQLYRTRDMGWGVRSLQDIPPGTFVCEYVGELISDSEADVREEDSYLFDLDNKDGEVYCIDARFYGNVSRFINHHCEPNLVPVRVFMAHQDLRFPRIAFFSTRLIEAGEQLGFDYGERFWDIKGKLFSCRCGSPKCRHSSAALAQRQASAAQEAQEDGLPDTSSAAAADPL

[14] = biological target: T1, von Hippel-Lindau disease tumor suppressor/Histone-lysine N-methyltransferase, H3 lysine-79 specific; assay: PROTAC activity at VHL/DOT1L in mixed-lineage leukemia rearranged (MLL-r) human MV4-11 cells assessed as induction of DOTIL degradation by measuring fold change in H3K79Me2 level at 3 uM incubated for 2 hrs by western blot analysis relative to control; type: cell-based
[15] = biological target: T1, von Hippel-Lindau disease tumor suppressor/Histone-lysine N-methyltransferase, H3 lysine-79 specific; assay: PROTAC activity at VHL/DOT1L in mixed-lineage leukemia rearranged (MLL-r) human THP-1 cells assessed as induction of DOTIL degradation by measuring fold change in H3K79Me2 level at 3 uM incubated for 4 hrs by western blot analysis relative to control; type: cell-based

fold change (FC) [1]: 0.12 | inhibition [2]: inactive | fold change (FC) [3]: 0.86 | fold change (FC) [4]: 0.97 | Activity [6]: inactive | fold change (FC) [7]: 0.36 | fold change (FC) [9]: 0.08 | fold change (FC) [10]: 0.07 | fold change (FC) [11]: 0.15 | fold change (FC) [12]: 0.99 | inhibition [13]: inactive | fold change (FC) [14]: 0.41 | fold change (FC) [15]: 1.08
Compound: Cc1ncsc1-c1ccc([C@H](CC(=O)NCCCCCCNC(=O)COc2nc(N)nc(Nc3cc(S(N)(=O)=O)ccc3N[C@@H](c3cccc4c3OC(F)(F)O4)c3ncccc3Cl)n2)NC(=O)[C@@H]2C[C@@H](O)CN2C(=O)[C@@H](NC(=O)C2(F)CC2)C(C)(C)C)cc1
Activity (MOLM-13 [5]): Active; Reduced Potency In Molm-13 Cells Relative To Mv4-11 Cells Observed | Activity (MOLM-13 [8]): inactive
